Measured values published in paper PMC8126811, “Clinical translation of choline and geranic acid deep eutectic solvent” (Bioengineering & Translational Medicine, 2020).

How the values were obtained:
[1] = Human cadaver skin permeation evaluation (static Franz cells); type: in vitro ADME
Protocol: Dermatomed full thickness human cadaver skin samples, 250–350 μm, were mounted onto static Franz cells. […] Phosphate buffered saline, pH 7.4 was used as the receptor medium. CGB400 gel was applied to the SC side of the skin samples at a dose of ~15 μl/cm^2 (~15 mg/cm^2). The cells were kept in a chamber at 37°C for a period of 24 h. Stirrers in the receptor chamber ensured that the receptor media was well mixed during this time. The receptor media was sampled at 4, 7, and 24 h to quantify the amount of choline and geranic acid permeation. After 24 h, the skin surface was washed before removing the SC by tape stripping. The SC was stripped from the epidermis using an adhesive tape up to 10 layers (SC1, SC2‐5, SC6‐10). Following SC removal, the epidermis was separated from the dermis using a surgical sterile scalpel and the dermis was cut into pieces. Each layer was collected separately in glass vials containing 2 ml of 50:50 water:methanol mixture and was left to shake overnight to extract the choline and geranic acid. The amount of choline and geranic acid was measured using LC–MS/MS in the wash, epidermis, dermis, and the receptor medium.

[2] = octanol-water partition coefficient; no reference given; cited from earlier work

Compound | applied CAGE1:2 dose penetrated into the dermis [1] | molar ratio of choline to geranic acid in the epidermis [1] | LogP [2]
Choline geranate [CAGE1:2] | About 9.5% | 1.18 | –
C[N+](C)(C)CCO [choline] | – | – | −3.7
CC(C)=CCC/C(C)=C/C(=O)O [geranic acid] | – | – | 2.8
